Measured values: patent US20060069132A1, “Azolecarboxamide herbicides” (priority 2004, published 2006)
Like-named read-outs stand apart in the source and are kept apart here.

Tests used:
ducksalad [1] = test: Test C flooded paddy test; assay type: in vivo, Heteranthera limosa
goosegrass = test: Test C pre-/postemergence herbicide test; assay type: in vivo, Eleusine indica
How it was run: (§1)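 Greenhouse-grown plants were evaluated visually 12 to 14 days after treatment, with 100 meaning complete control and 0 no effect. Application was preemergence, or postemergence at 2 to 18 cm.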

barnyardgrass = test: Test B flooded paddy test; assay type: in vivo, Echinochloa crus-galli; conditions: 1000 g ai/ha, visual rating, scale 0 to 100 (0 no effect, 100 complete control), 13 to 15 days
How it was run: (§2)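 Plants grow to 1- to 4-leaf stage (2–18 cm) for postemergence spraying, or to 2-leaf stage for the paddy test. Formulated compound is applied. Greenhouse holding lasts 13–15 days. Response is scored visually relative to controls, 0 no effect to 100 complete control; a dash means no result.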

ducksalad [2] = test: Test B flooded paddy test; assay type: in vivo, Heteranthera limosa; conditions: 1000 g ai/ha, visual rating, scale 0 to 100 (0 no effect, 100 complete control), 13 to 15 days
How it was run: as §2

rice = test: Test B flooded paddy test; assay type: in vivo, Oryza sativa; conditions: 1000 g ai/ha, visual rating, scale 0 to 100 (0 no effect, 100 complete control), 13 to 15 days
How it was run: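 Paddy species grown to the 2-leaf stage under flooding; blackgrass sprayed postemergence at 2–18 cm (1- to 4-leaf stage). Plants kept in a greenhouse for 13 to 15 days, then visually rated against controls on 0 (no effect) to 100 (complete control).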

[3] = system: smallflower umbrella sedge; test: Test C flooded paddy test; assay type: in vivo, Cyperus difformis
johnsongrass = test: Test C pre-/postemergence herbicide test; assay type: in vivo, Sorghum halepense
How it was run: as §1

cocklebur = test: Test C pre-/postemergence herbicide test; assay type: in vivo, Xanthium strumarium; conditions: for pest or weed control at 250 g/ha: 250 g ai/ha
How it was run: as §1

lambsquarters = test: Test C pre-/postemergence herbicide test; assay type: in vivo, Chenopodium album
How it was run: as §1

velvetleaf = test: Test C pre-/postemergence herbicide test; assay type: in vivo, Abutilon theophrasti
How it was run: as §1

corn = test: Test C pre-/postemergence herbicide test; assay type: in vivo, Zea mays; conditions: for Corn plant response rating (crop injury, 0 = no effect, 100 = complete kill) at 250 g/ha: 250 g ai/ha
How it was run: as §1

eastern black nightshade = test: Test C pre-/postemergence herbicide test; assay type: in vivo, Solanum ptycanthum; conditions: for Plant response rating (0 = no effect, 100 = complete control), Nightshade: 62 g ai/ha
How it was run: as §1

[4] = 62 g ai/ha, scale 0 to 100 (0 no effect, 100 complete control)
[5] = 125 g ai/ha, scale 0 to 100 (0 no effect, 100 complete control)
[6] = 250 g ai/ha, scale of 0 to 100, 0 is no effect, 100 is complete control
[7] = 500 g ai/ha, visual rating after 12 to 14 days, scale 0 to 100 (0 no effect, 100 complete control)
[8] = 125 g ai/ha, scale 0 (no effect) to 100 (complete control), visual, 12 to 14 days, preemergence

CCOC(=O)c1cccc(NC(=O)c2cc(C(C)(C)C)nn2CC)c1 [Compound 80, ethyl 3-[[[3-(1,1-dimethylethyl)-1-ethyl-1H-pyrazol-5-yl]carbonyl]-amino]benzoate]
pest or weed control at 62 g/ha (ducksalad [1]; Heteranthera limosa, 62 g ai/ha, scale 0 to 100 (0 no effect, 100 complete control), read-out: Ducksalad plant response rating): 20%
pest or weed control at 125 g/ha (ducksalad [1]; Heteranthera limosa, 125 g ai/ha, scale of 0 to 100, 0 is no effect, 100 is complete control, read-out: Ducksalad plant response rating): 20%
pest or weed control at 250 g/ha (ducksalad [1]; Heteranthera limosa, 250 g ai/ha, scale of 0 to 100, 0 is no effect, 100 is complete control, read-out: Ducksalad plant response rating): 20%
pest or weed control at 500 g/ha (ducksalad [1]; Heteranthera limosa, 500 g ai/ha, visual rating after 12 to 14 days, scale 0 to 100 (0 no effect, 100 complete control), read-out: Plant response rating, Ducksalad): 40%
Plant response rating (0 = no effect, 100 = complete control), Goosegrass (goosegrass; 62 g ai/ha, preemergence): 10
pest or weed control at 250 g/ha (goosegrass; Eleusine indica, post-emergence, 312 h, Postemergence, 250 g ai/ha, scale 0 to 100, 0 no effect, 100 complete control, read-out: Plant response rating, Goosegrass): 80%
pest or weed control at 125 g/ha (goosegrass; Eleusine indica, post-emergence, 312 h, postemergence, 125 g ai/ha, scale 0 to 100, read-out: Plant response rating, Goosegrass): 80%
pest or weed control at 62 g/ha (goosegrass; Eleusine indica, post-emergence, 312 h, postemergence, 62 g ai/ha, scale 0 to 100, read-out: Plant response rating, Goosegrass): 80%
pest or weed control at 31 g/ha (goosegrass; Eleusine indica, pre-emergence, 312 h, 31 g ai/ha, preemergence, scale 0 to 100, read-out: Plant response rating, Goosegrass): 10%
pest or weed control at 125 g/ha (goosegrass; Eleusine indica, pre-emergence, 312 h, 125 g ai/ha, scale 0 (no effect) to 100 (complete control), visual, 12 to 14 days, read-out: Plant response rating, Goosegrass): 10%
pest or weed control at 1000 g/ha (barnyardgrass; Echinochloa crus-galli, 336 h, read-out: Barnyardgrass plant response rating): 80%
pest or weed control at 1000 g/ha (ducksalad [2]; Heteranthera limosa, 336 h, read-out: Ducksalad plant response rating): 90%
plant injury at 1000 g/ha (rice; Oryza sativa, 336 h, read-out: Rice plant response rating): 60%
pest or weed control at 62 g/ha ([3]; Cyperus difformis, 62 g ai/ha, scale 0 to 100 (0 no effect, 100 complete control), read-out: Sedge, Umbrella plant response rating): 70%
pest or weed control at 125 g/ha ([3]; Cyperus difformis, 125 g ai/ha, scale of 0 to 100, 0 is no effect, 100 is complete control, read-out: Sedge, Umbrella plant response rating): 70%
pest or weed control at 250 g/ha ([3]; Cyperus difformis, 250 g ai/ha, scale of 0 to 100, 0 is no effect, 100 is complete control, read-out: Sedge, Umbrella plant response rating): 70%
pest or weed control at 500 g/ha ([3]; Cyperus difformis, 500 g ai/ha, visual rating after 12 to 14 days, scale 0 to 100 (0 no effect, 100 complete control), read-out: Plant response rating, Sedge, Umbrella): 70%
Plant response rating (0 = no effect, 100 = complete control), Johnsongrass (johnsongrass; 62 g ai/ha, preemergence): 10
pest or weed control at 250 g/ha (johnsongrass; Sorghum halepense, post-emergence, Postemergence, 250 g ai/ha, scale 0 to 100, 0 no effect, 100 complete control, read-out: Plant response rating, Johnsongrass): 90%
pest or weed control at 125 g/ha (johnsongrass; Sorghum halepense, post-emergence, postemergence, 125 g ai/ha, scale 0 to 100, read-out: Plant response rating, Johnsongrass): 90%
pest or weed control at 62 g/ha (johnsongrass; Sorghum halepense, post-emergence, postemergence, 62 g ai/ha, scale 0 to 100, read-out: Plant response rating, Johnsongrass): 80%
pest or weed control at 31 g/ha (johnsongrass; Sorghum halepense, pre-emergence, 31 g ai/ha, preemergence, scale 0 to 100, read-out: Plant response rating, Johnsongrass): 0%
pest or weed control at 125 g/ha (johnsongrass; Sorghum halepense, pre-emergence, 125 g ai/ha, scale 0 (no effect) to 100 (complete control), visual, 12 to 14 days, read-out: Plant response rating, Johnsongrass): 10%
Plant response rating (0 = no effect, 100 = complete control), Cocklebur (cocklebur; 62 g ai/ha, preemergence): 0
pest or weed control at 250 g/ha (cocklebur; Xanthium strumarium, post-emergence, 312 h, Postemergence, scale 0 to 100, 0 no effect, 100 complete control, read-out: Plant response rating, Cocklebur): 100%
pest or weed control at 125 g/ha (cocklebur; Xanthium strumarium, post-emergence, 312 h, postemergence, 125 g ai/ha, scale 0 to 100, read-out: Plant response rating, Cocklebur): 90%
pest or weed control at 31 g/ha (cocklebur; Xanthium strumarium, post-emergence, 312 h, postemergence, 31 g ai/ha, scale 0 to 100, read-out: Plant response rating, Cocklebur): 70%
pest or weed control at 62 g/ha (cocklebur; Xanthium strumarium, post-emergence, 312 h, postemergence, 62 g ai/ha, scale 0 to 100, read-out: Plant response rating, Cocklebur): 90%
pest or weed control at 125 g/ha (cocklebur; Xanthium strumarium, pre-emergence, 312 h, 125 g ai/ha, scale 0 (no effect) to 100 (complete control), visual, 12 to 14 days, read-out: Plant response rating, Cocklebur): 10%
pest or weed control at 250 g/ha (cocklebur; Xanthium strumarium, pre-emergence, 312 h, scale 0 to 100 (0 no effect, 100 complete control), visual, 12 to 14 days, read-out: Plant response rating, Cocklebur): 10%
Plant response rating (0 = no effect, 100 = complete control), Lambsquarters (lambsquarters; 62 g ai/ha, preemergence): 0
pest or weed control at 250 g/ha (lambsquarters; Chenopodium album, post-emergence, Postemergence, 250 g ai/ha, scale 0 to 100, 0 no effect, 100 complete control, read-out: Plant response rating, Lambsquarters): 100%
pest or weed control at 125 g/ha (lambsquarters; Chenopodium album, post-emergence, postemergence, 125 g ai/ha, scale 0 to 100, read-out: Plant response rating, Lambsquarters): 100%
pest or weed control at 62 g/ha (lambsquarters; Chenopodium album, post-emergence, postemergence, 62 g ai/ha, scale 0 to 100, read-out: Plant response rating, Lambsquarters): 90%
pest or weed control at 31 g/ha (lambsquarters; Chenopodium album, pre-emergence, 31 g ai/ha, preemergence, scale 0 to 100, read-out: Plant response rating, Lambsquarters): 0%
pest or weed control at 125 g/ha (lambsquarters; Chenopodium album, pre-emergence, 125 g ai/ha, scale 0 (no effect) to 100 (complete control), visual, 12 to 14 days, read-out: Plant response rating, Lambsquarters): 10%
pest or weed control at 250 g/ha (velvetleaf; Abutilon theophrasti, post-emergence, Postemergence, 250 g ai/ha, scale 0 to 100, 0 no effect, 100 complete control, read-out: Plant response rating, Velvetleaf): 100%
pest or weed control at 125 g/ha (velvetleaf; Abutilon theophrasti, post-emergence, postemergence, 125 g ai/ha, scale 0 to 100, read-out: Plant response rating, Velvetleaf): 100%
pest or weed control at 62 g/ha (velvetleaf; Abutilon theophrasti, post-emergence, postemergence, 62 g ai/ha, scale 0 to 100, read-out: Plant response rating, Velvetleaf): 100%
pest or weed control at 31 g/ha (velvetleaf; Abutilon theophrasti, pre-emergence, 31 g ai/ha, preemergence, scale 0 to 100, read-out: Plant response rating, Velvetleaf): 20%
pest or weed control at 125 g/ha (velvetleaf; Abutilon theophrasti, pre-emergence, 125 g ai/ha, scale 0 (no effect) to 100 (complete control), visual, 12 to 14 days, read-out: Plant response rating, Velvetleaf): 100%
Plant response rating (0 = no effect, 100 = complete control), Corn (corn; 62 g ai/ha, preemergence): 0
Corn plant response rating (crop injury, 0 = no effect, 100 = complete kill) at 250 g/ha (corn; Zea mays, post-emergence, 312 h, Postemergence, scale 0 to 100, 0 no effect, 100 complete control): 70%
Corn plant response rating (crop injury, 0 = no effect, 100 = complete kill) at 125 g/ha (corn; Zea mays, post-emergence, 312 h, postemergence, 125 g ai/ha, scale 0 to 100): 70%
Corn plant response rating (crop injury, 0 = no effect, 100 = complete kill) at 62 g/ha (corn; Zea mays, post-emergence, 312 h, postemergence, 62 g ai/ha, scale 0 to 100): 70%
Corn plant response rating (crop injury, 0 = no effect, 100 = complete kill) at 31 g/ha (corn; Zea mays, pre-emergence, 312 h, 31 g ai/ha, preemergence, scale 0 to 100): 0%
Corn plant response rating (crop injury, 0 = no effect, 100 = complete kill) at 125 g/ha (corn; Zea mays, pre-emergence, 312 h, 125 g ai/ha, scale 0 (no effect) to 100 (complete control), visual, 12 to 14 days): 10%
Corn plant response rating (crop injury, 0 = no effect, 100 = complete kill) at 250 g/ha (corn; Zea mays, pre-emergence, 312 h, scale 0 to 100 (0 no effect, 100 complete control), visual, 12 to 14 days): 20%
Plant response rating (0 = no effect, 100 = complete control), Nightshade (eastern black nightshade; preemergence): 10
pest or weed control at 31 g/ha (eastern black nightshade; pre-emergence, 31 g ai/ha, preemergence, scale 0 to 100, read-out: Plant response rating, Nightshade): 0%
pest or weed control at 125 g/ha (eastern black nightshade; pre-emergence, 125 g ai/ha, scale 0 (no effect) to 100 (complete control), visual, 12 to 14 days, read-out: Plant response rating, Nightshade): 10%

CC(=O)c1cccc(NC(=O)c2cc(C(C)(C)C)nn2CCF)c1 [Compound 128]
Ducksalad plant response rating (ducksalad [1]; [4]): 80
Ducksalad plant response rating (ducksalad [1]; [5]): 95
Ducksalad plant response rating (ducksalad [1]; [6]): 95
Plant response rating, Ducksalad (ducksalad [1]; [7]): 95
Plant response rating (0 = no effect, 100 = complete control), Goosegrass (goosegrass; 62 g ai/ha, preemergence): 80
Plant response rating, Goosegrass (goosegrass; [8]): 90
Barnyardgrass plant response rating (barnyardgrass): 70
Ducksalad plant response rating (ducksalad [2]): 90
Rice plant response rating (rice): 60
Sedge, Umbrella plant response rating [3, 4]: 80
Sedge, Umbrella plant response rating [3, 5]: 90
Sedge, Umbrella plant response rating [3, 6]: 95
Plant response rating, Sedge, Umbrella [3, 7]: 95
Plant response rating (0 = no effect, 100 = complete control), Johnsongrass (johnsongrass; 62 g ai/ha, preemergence): 90
Plant response rating, Johnsongrass (johnsongrass; [8]): 90
Plant response rating (0 = no effect, 100 = complete control), Cocklebur (cocklebur; 62 g ai/ha, preemergence): 10
Plant response rating, Cocklebur (cocklebur; [8]): 10
Plant response rating, Lambsquarters (lambsquarters; [8]): 30
Plant response rating, Velvetleaf (velvetleaf; [8]): 100
Plant response rating (0 = no effect, 100 = complete control), Corn (corn; 62 g ai/ha, preemergence): 20
Plant response rating, Corn (corn; [8]): 20
Plant response rating (0 = no effect, 100 = complete control), Nightshade (eastern black nightshade; preemergence): 90
Plant response rating, Nightshade (eastern black nightshade; [8]): 90
